Laboratory results published in article PMC12635197, “Discovery of first-in-class inhibitors of the TRF1:TIN2 protein:protein interaction by fragment screening” (Scientific Reports, 2025).

Target: T1, TRF1TRFH:TIN2-FAM interaction (Homo sapiens, UniProt P54274)
T1 construct: encoding residues 47–268, UniProt identifier P54274-1; His6-MBP (TEV-cleavable) (N, cleaved yes); made in house; host or cells: E. coli BL21-CodonPlus(DE3)-RIL (TRF1TRFH); probe peptide from Pepceuticals
T1 sequence (P54274 47-268): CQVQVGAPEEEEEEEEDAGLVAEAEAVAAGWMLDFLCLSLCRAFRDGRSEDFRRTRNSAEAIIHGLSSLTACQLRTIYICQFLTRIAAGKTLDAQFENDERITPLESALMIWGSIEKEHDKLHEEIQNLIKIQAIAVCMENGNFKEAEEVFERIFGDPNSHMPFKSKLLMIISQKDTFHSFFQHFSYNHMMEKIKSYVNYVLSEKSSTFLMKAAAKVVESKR
Assay: Fluorescence polarisation (FP) competition assay, TIN2-FAM displacement
Format: binding
Settings: 0.6 µM TRF1TRFH, 25 nM TIN2-FAM; mean of three independent experiments, 95% CI in parentheses
Description: To complement the biophysical R2KD assay, we developed a fluorescence polarisation (FP) competition assay based on a TIN2TBM peptide labelled with an N-terminal 5(6)-carboxyfluorescein (6-FAM) fluorophore. […] The NMR hit analogues were then titrated against constant concentrations of TRF1TRFH and TIN2-FAM (0.6 µM and 25 nM, respectively).
A TIN2TBM peptide was obtained from Pepceuticals with a 5(6)-carboxyfluorescein (FAM) fluorophore added to the N-terminus for fluorescence studies. To determine the assay window for the FP assay, the TIN2-FAM probe was prepared as a 16-µM stock in aqueous buffer and titrated from 0 to 400 nM against either a constant concentration of TRF1TRFH (0.5 µM in FP buffer) or FP buffer alone (25 mM HEPES-NaOH pH 7.5, 100 mM NaCl, 1 mM TCEP, 0.05% w/v CHAPS). Samples were prepared to a final volume of 10 µL in Packard Proxiplate 384 F plus plates; plates were incubated in darkness at room temperature for 1 h prior to measuring fluorescence intensities and calculating FP values, using a BMG Labtech PHERAstar FSX plate reader with an FP 485 520 520 optic module. A settling time of 0.3 s was used, and the number of flashes was set to 200 for FP measurements. For each plate, a target mP of 35 was set and the gain adjusted on the TIN2-FAM probe control well minus protein.
For the FP competition assay, the unlabelled compounds (from 50-mM DMSO stocks) were first dispensed in duplicate into wells of a Proxiplate 384 F Plus plate using an Echo 550 acoustic liquid handler to give a 13-point concentration range from 0.2 to 500 µM. Wells were then backfilled to 250 nL with DMSO before the addition of 5 µL of 2x TRF1TRFH (0.6 µM final concentration) and 4.75 µL 2x TIN2-FAM (25 nM final concentration). Plates were spun and sealed prior to incubation for 1 h in darkness. FP measurements were then carried out as described above.

IC50: 67 µM
Structure (SMILES): COc1cc(COc2ccc(S(=O)(=O)[O-])c3ccccc23)cc(OC)c1.[Na+] [Compound 40]
